Consider 30 molecules from ChEMBL document CHEMBL1817622, “Synthesis, structure-activity relationship and biological evaluation of novel N-substituted matrinic acid derivatives as host heat-stress cognate 70 (Hsc70) down-regulators” (2011).

SMILES strings stand for the structures. Activity calls are given as the source filed them. The calls are words filed in the database; no cut-off is given here.

By inhibition is commonly meant the percentage by which the read-out fell short of the control.

The test system of assay [1] is HepG2 2.2.15. Briefly: Inhibition of Hsc70 mRNA expression in human HepG2(2.2.15) cells at 100 ug/ml after 24 hrs by RT-PCR analysis. The format is functional. Conditions: HepG2 2.2.15, 24 h.
For the next assay, the system named is Hepatitis B virus. Briefly: Antiviral activity against Hepatitis B virus infected in human HepG2(2.2.15) cells assessed as inhibition of intracellular HBV DNA replication at 100 ug/mL for 24 hrs by RT-PCR analysis. Type of assay: functional. Also noted: scale not given: the % may be the effect or the level left.
Assay [2] in a line: Down regulation of Hsc70 protein level in human HepG2(2.2.15) cells after 24 hrs by RT-PCR analysis. Type of assay: functional, cell-based.
Assay [3] is described as follows: Down regulation of Hsc70 protein level in human HepG2(2.2.15) cells at 100 ug/mL for 24 hrs by RT-PCR analysis. The format is functional, cell-based.
A short description of assay [4]: Down regulation of Hsc70 protein level in human HepG2(2.2.15) cells at 500 ug/mL for 24 hrs by RT-PCR analysis. The format is functional, cell-based.
The test system of assay [5] is HepG2 2.2.15. Kind of assay: Ratio of […] to compound inhibition of mRNA expression in human HepG2(2.2.15) cells infected with Hepatitis B virus. The format is functional.

`O=C(O)CCC[C@@H]1[C@H]2CCCN3CCC[C@@H](CN1CC1CC1)[C@@H]23`: the inhibition at 100 µg/mL with HepG2 2.2.15 [1] was less than 10%. Turning to `O=C(O)CCC[C@@H]1[C@H]2CCCN3CCC[C@@H](CN1C(=O)CCl)[C@@H]23`, the inhibition at 100 µg/mL in the assay with HepG2 2.2.15 [1] is less than 10%. `O=C(O)CCC[C@@H]1[C@H]2CCCN3CCC[C@@H](CN1C(=O)CO)[C@@H]23`: the inhibition at 100 µg/mL in the assay with HepG2 2.2.15 [1] is less than 10%. Turning to `O=C1CCC[C@@H]2[C@H]3CCC[N+]4([O-])CCC[C@@H](CN12)[C@@H]34` (some centres not stated) [OXYMATRINE], testing at 100 µg/mL with HepG2 2.2.15 [1] gave an inhibition of 52%. For the same molecule, the Activity with Hepatitis B virus was 56%; in assay [2], “Dose-dependent effect”. `OCCCC[C@@H]1[C@H]2CCCN3CCC[C@@H](CN1Cc1ccccc1)[C@@H]23` returned an inhibition at 100 µg/mL in the assay on HepG2 2.2.15 [1] of 25.5%. On the same count and under the same terms, as for `O=C(O)CCC[C@@H]1[C@H]2CCCN3CCC[C@@H](CN1C(=O)c1ccccc1)[C@@H]23`, the figure is 33.6%; as for `O=C(O)CCC[C@@H]1[C@H]2CCC[N+]3([O-])CCC[C@@H](CN1Cc1ccccc1)[C@@H]23` (some centres not stated), 58.2%; as for `CCCN1C[C@@H]2CCCN3CCC[C@@H]([C@H]23)[C@H]1CCCC(=O)O`, less than 10%. Molecule `O=CN1C[C@@H]2CCCN3CCC[C@@H]([C@H]23)[C@H]1CCCC(=O)O` returned an inhibition at 100 µg/mL with HepG2 2.2.15 [1] of less than 10%. As to `[O-][N+]12CCC[C@H]3CN[C@H](CCCCO)[C@@H](CCC1)[C@H]32` (some centres not stated) [OXYMATRINOL], the inhibition at 100 µg/mL with HepG2 2.2.15 [1] is less than 10%. Regarding `C[N+]1(C)C[C@@H]2CCCN3CCC[C@@H]([C@H]23)[C@H]1CCCC(=O)O`, testing at 100 µg/mL in the assay on HepG2 2.2.15 [1] gave an inhibition of 14.1%. With `C[N+]1(C)C[C@@H]2CCC[N+]3([O-])CCC[C@@H]([C@H]23)[C@H]1CCCC(=O)O` (some centres not stated), the inhibition at 100 µg/mL in the assay with HepG2 2.2.15 [1] was less than 10%. In the assay with HepG2 2.2.15 [1], `Cc1cccc(OC(C)C(=O)N2C[C@@H]3CCCN4CCC[C@@H]([C@H]34)[C@H]2CCCC(=O)O)c1` (some centres not stated) gave an inhibition at 100 µg/mL of less than 10%. The molecule `CC(=O)N1C[C@@H]2CCCN3CCC[C@@H]([C@H]23)[C@H]1CCCC(=O)O` came in with an inhibition at 100 µg/mL with HepG2 2.2.15 [1] of 29.8%. Still for that read-out and setting: as for `O=C(O)CCC[C@H]1NC[C@@H]2CCCN3CCC[C@H]1[C@H]23` [MATRINIC ACID], the figure is 46.2%. Still for that read-out and setting: as for `Cc1ccc(S(=O)(=O)N2C[C@@H]3CCCN4CCC[C@@H]([C@H]34)[C@H]2CCCC(=O)O)cc1`, the figure is 39.8%; as for `CCN1C[C@@H]2CCCN3CCC[C@@H]([C@H]23)[C@H]1CCCC(=O)O`, less than 10%; as for `O=C(O)CCC[C@@H]1[C@H]2CCCN3CCC[C@@H](CN1Cc1ccccc1)[C@@H]23`, 55.9%.

`COc1ccc(CN2C[C@@H]3CCCN4CCC[C@@H]([C@H]34)[C@H]2CCCCO)cc1` yielded an inhibition at 100 µg/mL in the assay on HepG2 2.2.15 [1] of 12.2%. Still for that read-out and setting: then `O=C1CCC[C@@H]2[C@H]3CCCN4CCC[C@@H](CN12)[C@@H]34` [MATRINE], with 52.4%.

In the assay with HepG2 2.2.15 [1], `OCCCC[C@H]1NC[C@@H]2CCCN3CCC[C@H]1[C@H]23` [MATRINOL] showed an inhibition at 100 µg/mL of 39.3%. In the case of `O=C(O)CCC[C@@H]1[C@H]2CCCN3CCC[C@@H](CN1S(=O)(=O)c1ccccc1)[C@@H]23`, in the assay on HepG2 2.2.15 [1], the inhibition at 100 µg/mL turned out to be 22.1%. In turn, `COc1ccc(CN2C[C@@H]3CCC[N+]4([O-])CCC[C@@H]([C@H]34)[C@H]2CCCC(=O)O)cc1` (some centres not stated) showed an inhibition at 100 µg/mL in the assay on HepG2 2.2.15 [1] of 69.7%. `O=C(O)CCC[C@@H]1[C@H]2CCC[N+]3([O-])CCC[C@@H](CN1CC1CC1)[C@@H]23` (some centres not stated) had an inhibition at 100 µg/mL in the assay with HepG2 2.2.15 [1] of less than 10%. On to `COc1ccc(CN2C[C@@H]3CCCN4CCC[C@@H]([C@H]34)[C@H]2CCCC(=O)O)cc1`, for which the inhibition at 100 µg/mL in the assay with HepG2 2.2.15 [1] was 72.1%. The Activity in the assay with Hepatitis B virus was 77%; in assay [2], “Dose-dependent effect”. The result in assay [3] and in assay [4] was Active. Moreover, the “fold change (FC)” value in the assay with HepG2 2.2.15 [5] came to 1.3.

For the molecule `O=C(O)CCC[C@H]1NC[C@@H]2CCC[N+]3([O-])CCC[C@H]1[C@H]23` (some centres not stated) [OXYMATRINIC ACID], the inhibition at 100 µg/mL in the assay on HepG2 2.2.15 [1] is 45.5%.

In turn, `O=C(O)CCC[C@@H]1[C@H]2CCCN3CCC[C@@H](CN1C(=O)/C=C/c1ccccc1)[C@@H]23` showed an inhibition at 100 µg/mL in the assay on HepG2 2.2.15 [1] of less than 10%. Molecule `Cc1cccc(OCC(=O)N2C[C@@H]3CCCN4CCC[C@@H]([C@H]34)[C@H]2CCCC(=O)O)c1` showed an inhibition at 100 µg/mL in the assay with HepG2 2.2.15 [1] of less than 10%. In turn, `COc1cccc(CN2C[C@@H]3CCCN4CCC[C@@H]([C@H]34)[C@H]2CCCC(=O)O)c1` yielded an inhibition at 100 µg/mL with HepG2 2.2.15 [1] of 55.6%.

For the molecule `O=C(O)CCC[C@@H]1[C@H]2CCCN3CCC[C@@H](CN1CCO)[C@@H]23`, in the assay with HepG2 2.2.15 [1], at 100 µg/mL the inhibition was 53.7%.
